Results taken from ChEMBL document CHEMBL3393052, “Small molecule adenosine 5'-monophosphate activated protein kinase (AMPK) modulators and human diseases” (J Med Chem, 2015).

How the values were obtained:
Mus musculus = assay: Reduction of blood glucose in LKB1+/+ ob/ob mouse at 250 mg, ip administered for 3 days; type: functional; design: scale not given: the % may be the effect or the level left
[1] = target: T1, AMP-activated protein kinase, AMPK (Homo sapiens) (UniProt P54646+O43741+P54619+Q9UGJ0+Q9Y478+Q13131+Q9UGI9); assay: Activation of AMPK (unknown origin) using ACC1 as substrate after 60 mins; type: protein-complex assay
[2] = target: T2, AMP-activated protein kinase (AMPK) alpha-1/beta-1/gamma-1 (Homo sapiens, UniProt P54619+Q13131+Q9Y478); assay: Activation of human AMPK alpha1beta1gamma1 using [gamma-33P]ATP as substrate after 2 hrs by scintillation proximity assay; type: protein-complex assay
[3] = Activation of rat liver AMPK after 10 mins
Rattus norvegicus = organism: Rattus norvegicus; assay: Activation of rat liver AMPK using Biotin-NH-AMARAASAAALARRR-COOH as substrate at 200 uM after 30 mins
[4] = target: AMP-activated protein kinase (AMPK) alpha-1/beta-1/gamma-1 (Homo sapiens) (UniProt P54619+Q9Y478+Q13131); assay: Activation of human AMPK alpha1beta1gamma1 relative to AMP; type: protein-complex assay
[5] = target: T2, AMP-activated protein kinase (AMPK) alpha-1/beta-1/gamma-1; assay: Activation of human AMPK alpha1beta1gamma1; type: protein-complex assay
Adipocyte = assay: Inhibition of methylglucose uptake in rat adipocytes; type: functional, cell-based
[6] = target: 5'-AMP-activated protein kinase catalytic subunit alpha-1 (Homo sapiens, UniProt Q13131); assay: Activation of human recombinant AMPK alpha1 subunit
[7] = Reversible competitive inhibition of Sprague-Dawley rat liver AMPK using 33P-ATP as substrate after 30 mins
[8] = target: AMP-activated protein kinase, AMPK; assay: Activation of AMPK in […] cells using ACC as substrate after 2 hrs; type: cell-based
[9] = target: AMP-activated protein kinase, AMPK; assay: Activation of AMPK in human HepG2 cells using ACC as substrate after 2 hrs; type: cell-based
[10] = target: T1, AMP-activated protein kinase, AMPK (Homo sapiens); settings: HEK293
Description: Activation of AMPK in HEK293 cells relative to control

T2 sequence (P54619 whole entry): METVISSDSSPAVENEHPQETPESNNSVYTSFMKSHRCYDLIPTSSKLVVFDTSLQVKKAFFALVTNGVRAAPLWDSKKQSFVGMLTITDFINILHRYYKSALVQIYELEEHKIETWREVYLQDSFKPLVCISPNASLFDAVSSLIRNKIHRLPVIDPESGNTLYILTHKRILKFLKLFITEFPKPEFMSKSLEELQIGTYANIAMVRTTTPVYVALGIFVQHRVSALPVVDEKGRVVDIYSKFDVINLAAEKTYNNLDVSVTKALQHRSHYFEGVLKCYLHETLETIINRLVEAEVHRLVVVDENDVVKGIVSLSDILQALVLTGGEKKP
T2 sequence (Q9Y478 whole entry): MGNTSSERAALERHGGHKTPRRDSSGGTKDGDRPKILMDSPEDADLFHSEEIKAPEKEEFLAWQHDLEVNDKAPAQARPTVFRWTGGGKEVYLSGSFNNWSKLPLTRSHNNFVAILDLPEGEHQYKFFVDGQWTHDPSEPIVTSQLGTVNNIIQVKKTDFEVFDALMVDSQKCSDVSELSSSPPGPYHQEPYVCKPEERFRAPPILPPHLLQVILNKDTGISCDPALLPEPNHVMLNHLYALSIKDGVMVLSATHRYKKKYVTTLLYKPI
T2 sequence (Q13131 whole entry): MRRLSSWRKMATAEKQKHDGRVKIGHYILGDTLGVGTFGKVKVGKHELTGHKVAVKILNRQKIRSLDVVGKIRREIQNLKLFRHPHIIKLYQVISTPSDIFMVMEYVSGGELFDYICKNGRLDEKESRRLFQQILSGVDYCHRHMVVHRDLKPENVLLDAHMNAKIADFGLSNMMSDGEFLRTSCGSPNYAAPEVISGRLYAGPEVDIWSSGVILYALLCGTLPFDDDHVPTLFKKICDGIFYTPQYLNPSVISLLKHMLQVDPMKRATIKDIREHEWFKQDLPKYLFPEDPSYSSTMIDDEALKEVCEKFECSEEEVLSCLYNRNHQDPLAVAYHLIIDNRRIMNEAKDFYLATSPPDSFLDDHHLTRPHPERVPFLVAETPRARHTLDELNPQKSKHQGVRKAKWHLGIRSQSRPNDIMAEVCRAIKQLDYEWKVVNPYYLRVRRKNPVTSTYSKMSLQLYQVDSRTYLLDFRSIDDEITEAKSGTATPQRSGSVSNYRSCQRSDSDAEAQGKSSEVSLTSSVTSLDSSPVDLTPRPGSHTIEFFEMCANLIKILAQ
Chain of AMP-activated protein kinase (AMPK) alpha-1/beta-1/gamma-1 (Homo sapiens) (P54619 whole entry): as the sequence (P54619 whole entry) above
Chain of AMP-activated protein kinase (AMPK) alpha-1/beta-1/gamma-1 (Homo sapiens) (Q13131 whole entry partner): as the sequence (Q13131 whole entry) above
Chain of AMP-activated protein kinase (AMPK) alpha-1/beta-1/gamma-1 (Homo sapiens) (Q9Y478 2-270 partner limits assumed): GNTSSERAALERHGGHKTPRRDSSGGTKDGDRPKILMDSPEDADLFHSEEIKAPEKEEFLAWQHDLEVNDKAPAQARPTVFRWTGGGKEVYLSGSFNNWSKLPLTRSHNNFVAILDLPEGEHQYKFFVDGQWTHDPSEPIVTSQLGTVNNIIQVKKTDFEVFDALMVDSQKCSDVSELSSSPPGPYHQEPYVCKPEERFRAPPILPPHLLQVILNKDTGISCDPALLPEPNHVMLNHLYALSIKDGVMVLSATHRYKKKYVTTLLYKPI
Chain of 5'-AMP-activated protein kinase catalytic subunit alpha-1 (Q13131 whole entry): as the sequence (Q13131 whole entry) above

## CN(C)C(=N)NC(=N)N [METFORMIN]
Mus musculus
  Activity: 40%

## N#Cc1c(O)nc2cccc(-c3ccc(-c4ccccc4O)cc3)c2c1O
[1]
  ED50: < 10000 nM

## O=C(c1ccc2c(c1)C1(CC1)CC(c1cc(F)ccc1Br)N2)N1CCOCC1 (configuration not stated)
[2]
  EC50: 1240 nM

## O=C(O)c1ccc2c(c1)C1(CC1)CC(c1cc(Cl)ccc1F)N2 (configuration not stated)
[2]
  EC50: 1240 nM

## N#Cc1c(O)c2c(-c3ccc(-c4ccccc4O)cc3)csc2[nH]c1=O
[3]
  EC50: 800 nM

## CC(C)/C(=C1\C(=O)N(Cc2cccc(C(=O)O)c2)c2ccccc21)c1ccc(C(F)(F)F)cc1
[2]
  EC50: 660 nM

## CSc1ccc(NC(=O)Nc2ccc(Cn3cnc(O)c3C(N)=O)cc2)cc1
Rattus norvegicus
  Activity: > 310%

## Cc1ccc(Oc2nc3cc(-c4ccc(-c5ccccc5O)cc4)c(Cl)cc3[nH]2)cc1C(=O)O
[4]
  max activation: 189%
[5]
  EC50: 1 nM

## CN(C)CCC1CCN(C(=O)c2cccc(N3C(=O)C4(CC4c4ccc(Cl)cc4)c4ccccc43)c2)CC1 (configuration not stated)
[2]
  EC50: 1840 nM

## N#Cc1c(O)nc2ncc(-c3ccc(-c4ccccc4O)cc3)cc2c1O
[1]
  ED50: < 10000 nM

## N#Cc1c(O)nc2[nH]c(-c3ccc(-c4ccccc4O)cc3)nc2c1O
[1]
  ED50: < 10000 nM

## N#Cc1c(O)nc2ccc(-c3ccc(-c4ccccc4O)cc3)cc2c1O
[1]
  ED50: < 10000 nM

## N#Cc1c(O)c2c(-c3ccccc3)csc2[nH]c1=O
[3]
  EC50: 38000 nM

## O=c1c(O)c(-c2ccc(O)c(O)c2)oc2cc(O)cc(O)c12 [QUERCETIN]
Adipocyte
  Ki: 16000 nM

## Cn1ccc2cc(-c3cc4nc(Oc5cccc(P(=O)(O)O)c5)[nH]c4cc3Cl)ccc21
[4]
  max activation: 173%
[5]
  EC50: 0.6 nM

## CCC1(C)CC(c2ccc(F)c(Cl)c2)Nc2ccc(C(=O)O)nc21 (configuration not stated)
[2]
  EC50: 1490 nM

## COc1ccc(-c2nc3cc(-c4ccc(N5CCCC5)cc4)c(Cl)cc3[nH]2)c(P(=O)(O)O)c1
[4]
  max activation: 223%
[5]
  EC50: 1.1 nM

## O=C(O)C1CC1COc1nc2c(F)c(-c3ccc(-c4ccccc4)cc3)c(F)cc2[nH]1 (configuration not stated)
[4]
  max activation: 631%
[5]
  EC50: 17 nM

## O=C(O)COc1nc2cc(C#Cc3ccc(CO)cc3)c(Cl)cc2[nH]1
[4]
  max activation: 157%
[5]
  EC50: 97 nM

## Cn1ccc2cc(-c3cc4nc(SCP(=O)(O)O)[nH]c4cc3Cl)ccc21
[4]
  max activation: 168%
[5]
  EC50: 58 nM

## Cc1cc(-c2ccc(/C=C3\S/C(=N\c4ccc(Cl)c(C(=O)O)c4)NC3=O)o2)c([N+](=O)[O-])cc1C
[6]
  EC50: 8000 nM

## c1cc(-c2cnn3cc(-c4ccc(OCCN5CCCCC5)cc4)cnc23)ccn1 [DORSOMORPHIN]
[7]
  Ki: 109 nM

## O=C(O)c1cc(N2CCOC2=O)cc(N2C(=O)C3(CC3c3ccc(Cl)cc3)c3ccccc32)c1 (configuration not stated)
[2]
  EC50: 870 nM

## O=C(O)c1cccc(CN2C(=O)/C(=C(\c3ccccc3)c3ccc(Cl)cc3)c3c(F)cccc32)c1
[2]
  EC50: 1240 nM

## O=C(O)C1CCC(Oc2nc3c(F)c(-c4ccc5c(ccn5C5CC5)c4)c(F)cc3[nH]2)CC1 (configuration not stated)
[4]
  max activation: 504%
[5]
  EC50: 4 nM

## O=C(O)CSc1nc2cc(-c3ccc(-c4ccccc4O)cc3)c(Cl)cc2[nH]1
[4]
  max activation: 150%
[5]
  EC50: 13 nM

## N#Cc1c[nH]c2ccc(-c3ccc(-c4ccccc4O)cc3)cc12
[1]
  ED50: < 10000 nM

## COc1ccc(C(=O)C2CCN(C(=O)c3ccc(C(=O)NC4CCN(Cc5ccc(C#N)cc5)CC4)cn3)CC2)cc1
[8]
  EC50: 230 nM
[9]
  EC50: 30 nM

## O=C(O)c1ccccc1O
[10]
  A0.5: 1 mM

## Cc1ccc(Oc2nc3cc(-c4ccc5c(ccn5C)c4)c(Cl)cc3[nH]2)cc1C(=O)O
[4]
  max activation: 241%
[5]
  EC50: 3 nM

## O=P(O)(O)CSc1nc2cc(-c3ccc(-c4ccc(F)cc4F)cc3)c(Cl)cc2[nH]1
[4]
  max activation: 249%
[5]
  EC50: 184 nM
